# Patent US20170354638A1, “BIXA ORELLANA COMPOSITION FOR THE TREATMENT MACULAR DEGENERATION” (BIOPHYTIS, priority 2011, published 2017)
# Tested on: primary cultures of adult porcine RPE cells
# Experiment: RPE cellular model of phototoxicity induced by A2E treatment followed by blue radiation illumination; cell survival
# Format: cell-based
# Settings: for protective effect (cell survival vs control without A2E): concentrations of 0.1 and 1 μM, 48 h treatment, last 24 h with A2E, then blue light; for protection, percentage of survival compared to the control without A2E: 10 μM
# Protocol: Given the very probable role of this mechanism in the development of AMD, the inventors used an in vitro cellular model of induced phototoxicity by the association of a treatment with A2E and illumination by blue light on RPE primary cell cultures wherein cell survival was measured. This model was developed by the Institute of Vision and allows for screening molecules aimed to discover new candidates for the treatment of dry AMD.
# To test the photoprotective effect of the test substances, the inventors used a cellular model of induced phototoxicity by treatment with A2E followed by illumination with blue radiation. This model was produced from primary cultures of adult porcine RPE cells. Cell survival was determined by the ratio between the number of living cells and the total number of cells (alive+dead, respectively quantified using specific staining). Image acquisition was performed using a fluorescence microscope controlled by Metamorph software and quantifications were made by processing images acquired by a program dedicated quantification. The experiments were performed in 96-well microplates in quadruplicate and the experiment was repeated at least four times. Cells were treated for 48 hours with these compounds, the last 24 hours in the presence of A2E before induction of phototoxicity. Three concentrations (0.1, 1 and 10 μM) were tested for each compound. Some compounds were further tested at 20 μM to achieve a range of concentrations.
compound,measurement,setting,value
CC(/C=C/C=C(\C)C(=O)O)=C\C=C\C=C(C)\C=C\C=C(/C)C(=O)O [Crocetin],protective effect (cell survival vs control without A2E),,did not show a protective effect
Oc1cc(O)c2cc(O)c(-c3ccc(O)c(O)c3)[o+]c2c1 [Cyanidin],"protection, percentage of survival compared to the control without A2E",,~87%
O=c1oc2c(O)c(O)cc3c(=O)oc4c(O)c(O)cc1c4c23 [Ellagic acid],"protection, percentage of survival compared to the control without A2E",,~68%
same,protection against phototoxicity (in words),20 μM,protection similar to that measured at 10 μM
same,protective effect (cell survival vs control without A2E),,did not show a protective effect
"CC1=C[C@H](O)CC(C)(C)[C@H]1/C=C/C(C)=C/C=C/C(C)=C/C=C/C=C(C)/C=C/C=C(C)/C=C/C1=C(C)C[C@@H](O)CC1(C)C [Lutein, reference compound]",protective effect (cell survival vs control without A2E),,did not show a protective effect
O=C1C[C@@H](c2ccc(O)cc2)Oc2cc(O)cc(O)c21 [Naringenin],protective effect (cell survival vs control without A2E),,did not show a protective effect
O=c1cc(-c2ccc(O)c(O)c2)oc2c([C@@H]3O[C@H](CO)[C@@H](O)[C@H](O)[C@H]3O)c(O)cc(O)c12 [Orientin],protective effect (cell survival vs control without A2E),,did not show a protective effect
"Oc1ccc(C=Cc2cc(O)cc(O)c2)cc1 [Resveratrol, reference compound]",protective effect (cell survival vs control without A2E),,did not show a protective effect
"CC1=C(/C=C/C(C)=C/C=C/C(C)=C/C=C/C=C(C)/C=C/C=C(C)/C=C/C2=C(C)C[C@@H](O)CC2(C)C)C(C)(C)C[C@H](O)C1 [Zeaxanthin, reference compound]",protective effect (cell survival vs control without A2E),,did not show a protective effect
